The test system of the series is Zein. Nature of the series: Zein test (skin compatibility: nitrogen solubilised from zein by surfactant solution, micro-Kjeldahl). Further details: species or system Mais. As to conditions: 20 %ig surfactant solution, pH 7; 40 ml with 2 g Zein, 1 Stunde, 35° C; lower Zein number = better skin compatibility. The source says: Zur Bestimmung der Hautfreundlichkeit der erfindungsgemäßen neuartigen Tenside wurde der Zein-Test durchgeführt. Als Testprodukt diente das Neutralisationsprodukt von Fettalkohol-C12-C14-ether-monoschwefelsäureester mit circa 2 Mol Ethylenoxid mit N-ß-Hydroxyethyl-N-methyl- glucamin (Produkt A). Als Vergleichssubstanzen dienten Nonylbenzolsulfonat (Na-Salz), Natriumlaurylsulfat und Natrium-Fettalkohol-C12-C14-ethersulfat mit 2-Ethylenoxidgruppen im Molekül.
Die bei dem Zeintest erhaltene Zeinzahl gibt an, wieviel mg Stickstoff in 100 ml einer Tensidlösung enthalten sind, wenn diese 1 Stunde lang bei 35° C mit 2 g Zein versetzt wird. Je niedriger die Zeinzahl, um so besser ist die Hautverträglichieit des Produktes. Der Zein-Test wird in der nachfolgend beschriebenen Weise durchgeführt:
1. Ansetzen der Stammlösunsen:
Die 1/20 n Natronlauge wird mit Benzoesäure (DAB 6) eingestellt. Dazu werden circa 40 bis 50 mg Benzoesäure in einen 100 ml Erlenmeyerkolben eingewogen. und in ungefähr 25 ml neutralisiertem Ethylalkohol gelöst. Zum Neutralisieren wird der Alkohol mit einigen Tropfen verdünnter Natronlauge gegen Phenolphthalein bis zur bleibenden Rosafärbung versetzt. Die gelöste Benzoesäure wird nun mit der 1/20 n Natronlauge bis zur bleibenden Rosafärbung titriert und der Faktor berechnet: [drawing 2]
1.2. Schwefelsäure 1/20 n
Aus einer Mikrobürette läßt man 10 ml der 1/20 n Schwefelsäure in einen 100 ml Erlenmeyerkolben einlaufen, gibt 5 Tropfen Tashiro-Indikator hinzu und bringt die Vorlage am Destillierapparat an. In den Destillierkolben gibt man 20 ml 25 %ige Natronlauge, verdünnt mit destilliertem Wasser bis zur Hälfte des Volumens und destilliert 7 bis 10 Minuten. Die Vorlage wird nun abgenommen, und, nachdem mit etwas destilliertem Wasser das in Schwefelsäure eintauchende Glasrohr abgespült wurde, titriert man mit 1/20 n Natronlauge von violett auf blaugrün. Der erhaltene Wert ist der Blind-_ wert, der auch gleichzeitig eine Kontrolle des Destillier-Apparates ist und regelmäßig bestimmt wird. Diese Zahl wird der Berechnung des Stickstoffgehaltes zugrunde gelegt.
[…] Methylrot in 300 ml Ethanol und 0,40 g Methylenblau in 400 ml 50 %igem Ethanol.
1.4. 25 %ige Natronlauge aus NaOH-Plätzchen.
1.5. Das zu prüfende Tensid wird als x-prozentige Lösung mit destilliertem Wasser angesetzt und auf pH 7 eingestellt.
2. Aufbereitung des Zein:
Das verwendete Zein aus Mais (MG 20.000 - 30.000; ~98,5 % Protein) wird im Vakuumtrockenschrank bei maximal 40° C bis zur Gewichtskonstanz getrocknet.
3. Durchführung des Tests:
In eine 50 ml-Enghalsflasche mit Schraubverschluß werden 40 ml Tensidlösung pipettiert und in einem Wasserbad auf 35° C temperiert. […]

In turn, `CCCCCCCCCCCCOS(=O)(=O)O` [Natriumlaurylsulfat] returned a Zein-Zahl of 535 mg Stickstoff in 100 ml.

In the case of “Natrium-Fettalkohol-C12-C14-ethersulfat mit 2-Ethylenoxidgruppen im Molekül [Fettalkohol-C12-C14-ethersulfat mit 2 EO]”, the Zein-Zahl amounted to 329 mg Stickstoff in 100 ml. The result for “Neutralisationsprodukt aus N-β-Hydroxyethyl-N-methylglucamin und Fettalkohol-C12-C14-ethermonoschwefelsäureester mit circa 2 Mol Ethylenoxid” reads 223 mg Stickstoff in 100 ml; that for Nonylbenzolsulfonat (Na-Salz), 620 mg Stickstoff in 100 ml.

These data come from EP0039860A1, “Surfactants, their preparation and their use in cosmetic cleansing compositions, and cosmetic cleansing compositions mild to the skin containing them” (Henkel Kommanditgesellschaft auf Aktien, priority 1980, dated 1981).
